Assay results: patent publication US4232008A, “Tetrapeptides and methods” (Ortho Pharmaceutical Corporation, priority 1978, dated 1980)
Square brackets hold non-standard residues; d marks the D form. Ends that are not written are not given here. Peptide text beside a SMILES is read from it. Glx = not defined here; Sar = CNCC(=O)O

What was measured:
[1] = test system: Th-1+ T-lymphocytes and Bu-1+ B-lymphocytes (differentiation of inducible bone marrow cells); assay: chicken induction assay; format: cell-based; conditions: for biological activity: induction of differentiation of Th-1+ T and Bu-1+ B lymphocytes, compared with ubiquitin: chicken bone marrow cells, cytotoxicity index readout; for concentration at which activity was observed: chicken induction assay
Source text: To determine the activity and characteristics of the tetrapeptide produced in Example I, the following chicken induction assay was employed. This assay is described in greater detail in Brand, et. al., Science, 193 319-321 (July 23, 1976) and references contained therein.
Bone marrow from newly-hatched chickens was selected as a source of inducible cells because it lacks an appreciable number of Bu-1^+ or Th-1^+ cells. Pooled cells from femur and tibiotarsus of five newly-hatched chicks of strains SC (Hy-Line) were fractionated by ultracentrifugation on a five-layer discontinuous bovine serum albumin (BSA) gradient. Cells from the two lighter layers were combined, washed, and suspended for incubation at a concentration of 5×10^6 cells per milliliter with the appropriate concentration of test polypeptide in RPMI 1630 medium supplemented with 15 mM hepes, 5 percent γ-globulin-free fetal calf serum, deoxyribonuclease (14 to 18 unit/ml), heparin (5 unit/ml), penicillin (100 unit/ml), and streptomycin (100 μg/ml). Controls were incubated with BSA (1 μg/ml) or medium alone. After incubation, the cells were tested in the cytotoxicity assay using chicken Cl and guinea pig C2 to C9 complement fractions as described in the reference article. The proportion of Bu-1^+ or Th-1^+ cells in each layer was calculated as a cytotoxicity index, 100 (a-b)/a, where a and b are the percentages of viable cells in the complement control and test preparation, respectively. The percentage of cells induced was obtained by subtracting the mean values in the control incubations without inducing agents (usually 1 to 3 percent) from those of the test inductions.
This high dose of ubiquitin inactivates the ubiquitin receptors and thus prevents the induction of cells by any agent which acts through these receptors.

[2] = test system: cytotoxic lymphocyte precursors (CLP); assay: microculture limiting dilution assay of cytotoxic lymphocyte precursor frequencies after injection of the drug; format: in vivo, mice (C57 BL/6J); conditions: in vitro assay of spleen cells after administration
Description: To further illustrate the utility of the subject polypeptides, this example describes a microculture assay for estimating the frequencies of the cytotoxic lymphocytes produced upon stimulation by allogenic antigens. The frequencies of cytotoxic precursors between control animals and animals injected with various concentrations of the drug were compared by a limiting dilution assay.
The test animals (C57 BL/6J) were injected (i.v. or i.p.) with various concentrations of H--SAR--LYS--SAR--GLN--NH2 (the drug; identification no. G040) in 0.2 ml volume 24 hours before they were sacrificed for the experiments.
Cell suspensions from spleens of C57 BL/6J mice or DBA/2J mice were prepared by mincing the organ and pressing them through a wire mesh (60 gauge) with the plunger of a 5 c.c. syringe into a falcon petri dish (falcon 3002, 15×60 mm). The cell suspensions were allowed to stand at room temperature for 10 minutes to let the big chunks of tissue settle. The cell suspensions were then transferred to 15 ml Corning centrifuge tubes (Corning 25310) and spun for 10 minutes at 1500 RPM in the Beckmen TJ-6 centrifuge. […] After the third wash, the responder (C57 BL/6J) cells were resuspended in culture medium and counted in the Coulter counter. […] The DBA cells were then resuspended in the culture medium and counted in the Coulter counter. […]

T cells = conditions: E rosette assay, Bach articles; cited from earlier work
T cells and B cells = conditions: applicant's published investigation; cited from earlier work

**Q.** Which results are given for C[C@H](N)C(=O)N[C@@H](CCCCN)C(=O)N[C@@H](CO)C(=O)N[C@@H](CCC(N)=O)C(=O)O [Example I, H--ALA--LYS--SER--GLN--OH] (H-AKSQ-OH)?
**A.** biological activity: induction of differentiation of Th-1+ T and Bu-1+ B lymphocytes, compared with ubiquitin [1]: biological activity similar to that of ubiquitin; concentration at which activity was observed [1]: ng/ml concentrations

**Q.** Which “biological activity: induction of differentiation of Th-1+ T and Bu-1+ B lymphocytes, compared with ubiquitin” value [1] does the source give for C[C@@H](N)C(=O)N[C@@H](CCCCN)C(=O)N[C@H](C)C(=O)N[C@@H](CCC(N)=O)C(N)=O [H--D--ALA--LYS--D--ALA--GLN--NH2] (H-[dA]K[dA]Q-NH2) here?
**A.** biological activity similar to that of ubiquitin

**Q.** Which “biological activity: induction of differentiation of Th-1+ T and Bu-1+ B lymphocytes, compared with ubiquitin” value [1] does the source give for CNCC(=O)N[C@@H](C)C(=O)N[C@@H](CCCCN)C(=O)N[C@@H](CO)C(=O)N[C@@H](CCC(N)=O)C(=O)O [H--SAR--ALA--LYS--SER--GLN--OH] (H-[Sar]AKSQ-OH) here?
**A.** biological activity similar to that of ubiquitin

**Q.** Which “biological activity: induction of differentiation of Th-1+ T and Bu-1+ B lymphocytes, compared with ubiquitin” value [1] does the source give for CNCC(=O)N[C@@H](CCCCN)C(=O)N[C@H](C)C(=O)N[C@@H](CCC(N)=O)C(N)=O [H--SAR--LYS--D--ALA--GLN--NH2] (H-[Sar]K[dA]Q-NH2) here?
**A.** biological activity similar to that of ubiquitin

**Q.** For CNCC(=O)N[C@@H](CCCCN)C(=O)N(C)CC(=O)N[C@@H](CCC(N)=O)C(N)=O [H--SAR--LYS--SAR--GLN--NH2] (H-[Sar]K[Sar]Q-NH2), which “biological activity: induction of differentiation of Th-1+ T and Bu-1+ B lymphocytes, compared with ubiquitin” value [1] is on record?
**A.** biological activity similar to that of ubiquitin

**Q.** And the “concentration at which activity was observed” value [1]?
**A.** ≥ 0.1 pg/mL

**Q.** And the “effect on in vivo production of cytotoxic lymphocyte precursors upon stimulation by allogenic antigens” value [2]?
**A.** promoted the production of cytotoxic lymphocyte precursors

**Q.** What does the source list for “GLX--ALA--LYS--SER--GLN--GLY--GLY--SER--ASN (Glx-AKSQGGSN; reading uncertain; also: N-terminal Glx: Gln or pyroglutamic acid, printed as GLX--ALA--LYS--SER--GLN--GLY--GLY--SER--ASN) [FTS, nonapeptide isolated from porcine serum by Bach; GLX is glutamine or pyroglutamic acid]”?
**A.** differentiation of T cells versus B cells (T cells): selectively differentiated T cells (and not B cells); differentiation of T cells and B cells (T cells and B cells): differentiated both T cells and B cells

**Q.** Which “biological activity: induction of differentiation of Th-1+ T and Bu-1+ B lymphocytes, compared with ubiquitin” value [1] does the source give for QAKSQ [H--GLN--ALA--LYS--SER--GLN--OH] here?
**A.** biological activity similar to that of ubiquitin

**Q.** With “QAKSQGGSN [H--GLN--ALA--LYS--SER--GLN--GLY--GLY--SER--ASN--OH, reference compound]” as the molecule, how does the “biological activity: induction of differentiation of Th-1+ T and Bu-1+ B lymphocytes, compared with ubiquitin” value [1] read?
**A.** biological activity similar to that of ubiquitin
